Columns and labels:
human TRPM8 = molecular target: T1, human TRPM8 (Homo sapiens, UniProt Q7Z2W7); test: In vitro human TRPM8 fluorescence calcium flux assay (recombinant CHO cells, Fluo4-AM, FDSS6000); type: cell-based; conditions: recombinant CHO cells expressing human TRPM8; menthol-related EC50, normalized to 100 μM menthol
T1 construct: expressed in transfected cells; host or cells: CHO (p658 mammalian expression vector)
Procedure: (§1) In Vitro Pig and Human TRPM8 Fluorescence Calcium Flux Assays
(§2) For functional expression of TRPM8, the full-length cDNA encoding human (NM_024080) and pig (XM_001927892.1) TRPM8 sequences were subcloned into p658 and pcDNA5/FRT/TO mammalian expression vectors, respectively. Engineered recombinant CHO cell lines expressing human or pig TRPM8 were generated. Culture media was Ham-F12 with 10% FCS for both lines, and for the pig cell line only 400 μg/ml hygromycin B and 30 μg/mL blasticidin were added as selection antibiotics (all reagents were obtained from Invitrogen, Fisher Scientific). Cells were grown in culture flasks up to 80% confluence where they were harvested using accutase (Sigma, MO, USA) to detach the cells by enzymatic dissociation and either seeded directly into assay plates or cryopreserved for future use.
(§3) For calcium flux assays, cells were plated into clear base poly-D-lysine coated 384-well plates (BD Biosciences, NJ USA) at a density of 15,000 cells per well in appropriate culture medium and grown overnight. The following day, all medium was removed then the cells were incubated with 2 μM of Fluo4-AM Dye (Molecular Probes) prepared in complete HBSS assay buffer containing 20 mM HEPES, 0.1% BSA, and 2.5 mM probenecid at room temperature for one hour. Following incubation, plates were inserted into a FDSS6000 instrument (Hamamatsu, Photonics, Japan) instrument, where cells were challenged with compounds of the formula (at varying concentrations) and intracellular calcium was measured kinetically for 3 min after addition.
(§4) This protocol allowed the determination of an EC50 value, from the sixteen-point dose response data, for each compound of the formula tested. Maximal fluorescence intensity achieved upon addition of 100 μM menthol (stock solution prepared in ethanol from solid, Sigma-Aldrich) was exported from the FDSS and further analyzed using IDBS XLFit 5. Data were normalized to the average 100 μM menthol response (maximum control wells) included in each plate. The dose response curves from the average of wells for each data point were analyzed by using nonlinear regression of sigmoidal dose response (formula 205). Finally, the (menthol-related) EC50 values (Half maximal effective concentration) were calculated with the best-fit dose curve determined by IDBS XLFit 5 software.

pig TRPM8 = molecular target: T2, pig TRPM8 (Sus scrofa, UniProt F1SM15); test: In vitro pig TRPM8 fluorescence calcium flux assay (recombinant CHO cells, Fluo4-AM, FDSS6000); type: cell-based; conditions: recombinant CHO cells expressing pig TRPM8; menthol-related EC50, normalized to 100 μM menthol
T2 construct: expressed in transfected cells; host or cells: CHO (pcDNA5/FRT/TO vector; hygromycin B and blasticidin selection)
T2 sequence (F1SM15 1-1104): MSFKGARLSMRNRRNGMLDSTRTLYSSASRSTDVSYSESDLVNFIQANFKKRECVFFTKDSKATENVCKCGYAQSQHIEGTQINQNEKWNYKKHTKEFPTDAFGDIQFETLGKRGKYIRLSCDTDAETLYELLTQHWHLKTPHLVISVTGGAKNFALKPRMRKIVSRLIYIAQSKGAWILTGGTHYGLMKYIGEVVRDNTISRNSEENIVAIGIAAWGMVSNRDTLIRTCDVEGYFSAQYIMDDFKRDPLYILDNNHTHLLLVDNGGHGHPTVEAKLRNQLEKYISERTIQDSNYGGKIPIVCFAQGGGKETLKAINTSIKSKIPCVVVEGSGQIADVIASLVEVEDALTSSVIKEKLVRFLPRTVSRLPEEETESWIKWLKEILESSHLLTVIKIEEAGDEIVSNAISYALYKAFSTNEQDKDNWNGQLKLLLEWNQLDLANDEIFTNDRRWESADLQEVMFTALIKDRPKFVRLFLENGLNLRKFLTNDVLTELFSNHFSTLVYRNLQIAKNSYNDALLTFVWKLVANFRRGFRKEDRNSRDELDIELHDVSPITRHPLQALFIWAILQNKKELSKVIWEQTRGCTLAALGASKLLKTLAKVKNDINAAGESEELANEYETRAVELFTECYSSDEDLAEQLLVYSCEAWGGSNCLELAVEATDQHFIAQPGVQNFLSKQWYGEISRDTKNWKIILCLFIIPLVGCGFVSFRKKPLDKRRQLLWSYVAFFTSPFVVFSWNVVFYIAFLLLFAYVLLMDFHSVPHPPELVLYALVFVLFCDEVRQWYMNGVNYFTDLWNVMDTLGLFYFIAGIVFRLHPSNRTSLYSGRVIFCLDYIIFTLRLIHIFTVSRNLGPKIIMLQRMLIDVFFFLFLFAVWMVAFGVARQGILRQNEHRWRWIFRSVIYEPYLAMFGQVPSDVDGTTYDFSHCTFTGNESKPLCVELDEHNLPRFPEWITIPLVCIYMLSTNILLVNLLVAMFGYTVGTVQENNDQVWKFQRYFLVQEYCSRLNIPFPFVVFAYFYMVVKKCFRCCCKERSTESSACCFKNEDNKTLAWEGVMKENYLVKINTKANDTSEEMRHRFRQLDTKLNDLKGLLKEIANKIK
Procedure: as §1, §2, §3, §4

T1 sequence (Q7Z2W7 whole entry): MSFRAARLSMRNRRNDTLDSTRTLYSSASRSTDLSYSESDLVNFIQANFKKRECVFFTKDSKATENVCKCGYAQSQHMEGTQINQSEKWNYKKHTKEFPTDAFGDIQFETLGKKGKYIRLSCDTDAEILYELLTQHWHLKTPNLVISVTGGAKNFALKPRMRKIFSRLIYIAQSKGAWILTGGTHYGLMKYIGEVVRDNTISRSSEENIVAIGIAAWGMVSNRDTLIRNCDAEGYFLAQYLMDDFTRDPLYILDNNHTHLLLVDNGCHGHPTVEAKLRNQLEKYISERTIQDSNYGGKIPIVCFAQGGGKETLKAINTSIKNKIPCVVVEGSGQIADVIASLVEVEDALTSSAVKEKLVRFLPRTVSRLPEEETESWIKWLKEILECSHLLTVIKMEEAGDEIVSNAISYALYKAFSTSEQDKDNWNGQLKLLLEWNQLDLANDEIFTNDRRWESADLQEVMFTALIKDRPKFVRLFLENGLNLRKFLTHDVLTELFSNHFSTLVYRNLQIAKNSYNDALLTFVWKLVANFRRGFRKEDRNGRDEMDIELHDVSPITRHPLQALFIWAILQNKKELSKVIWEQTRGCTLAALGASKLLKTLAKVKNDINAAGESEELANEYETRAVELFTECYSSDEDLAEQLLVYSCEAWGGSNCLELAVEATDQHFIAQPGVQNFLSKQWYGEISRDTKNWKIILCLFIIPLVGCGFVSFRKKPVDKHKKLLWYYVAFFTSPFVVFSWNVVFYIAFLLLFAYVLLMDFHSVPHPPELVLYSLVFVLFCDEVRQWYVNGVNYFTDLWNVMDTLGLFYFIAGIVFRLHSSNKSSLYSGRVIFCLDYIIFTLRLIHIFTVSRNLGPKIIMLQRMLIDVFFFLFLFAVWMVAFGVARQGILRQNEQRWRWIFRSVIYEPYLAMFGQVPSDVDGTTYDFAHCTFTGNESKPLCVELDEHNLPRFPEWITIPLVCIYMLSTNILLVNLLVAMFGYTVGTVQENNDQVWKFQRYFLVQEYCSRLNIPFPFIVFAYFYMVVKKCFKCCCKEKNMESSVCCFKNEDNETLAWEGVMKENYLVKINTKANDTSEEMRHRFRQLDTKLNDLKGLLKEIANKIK

| EC50 (human TRPM8) | EC50 (pig TRPM8) | Structure (SMILES) |
| --- | --- | --- |
| 410 nM | 191 nM | CC(C)[C@@H]1CC[C@@H](C)C[C@@]1(O)C(=O)NCC1OC(=O)c2ccccc21 (mixture of isomers) [Example 17, (1S,2S,5R)-1-hydroxy-2-isopropyl-5-methyl-N-(((1RS)-3-oxo-1,3-dihydroisobenzofuran-1-yl)methyl) cyclohexane-1-carboxamide] |
| 757 nM | 242 nM | CC(C)[C@@H]1CC[C@@H](C)C[C@@]1(O)C(=O)NCC1OC(=O)c2ccccc21 (mixture of isomers) [Example 18, (1S,2S,5R)-1-hydroxy-2-isopropyl-5-methyl-N-(((1RS)-3-oxo-1,3-dihydroisobenzofuran-1-yl)methyl) cyclohexane-1-carboxamide] |
| 3.6 nM | 3.4 nM | CC(C)[C@@H]1CC[C@@H](C)C[C@@]1(O)C(=O)NCC1(O)CCCc2ccccc21 (mixture of isomers) [Example 177, (1S,2S,5R)-1-hydroxy-N-(((1RS)-hydroxy-1,2,3,4-tetrahydronaphthalen-1-yl)methyl)-2-isopropyl-5-methylcyclohexane-1-carboxamide] |
| 168 nM | 136 nM | CC(C)[C@@H]1CC[C@@H](C)C[C@@]1(O)C(=O)NCC(O)(c1ccccc1)C(F)(F)F (single isomer, unassigned) [Example 83] |
| 19 nM | 5.2 nM | [2H]C(O)(CNC(=O)[C@]1(O)C[C@H](C)CC[C@H]1C(C)C)c1ccccc1 (single isomer, unassigned) [Example 91] |
| 43 nM | 535 nM | CC(C)[C@@H]1CC[C@@H](C)C[C@@]1(O)C(=O)NCC1(O)CCc2ccccc21 (single isomer, unassigned) [Example 175] |
| 7510 nM | 749 nM | COC[C@H](NC(=O)[C@]1(O)C[C@H](C)CC[C@H]1C(C)C)C(O)c1ccccc1 (stereo in doubt) [Example 122, (1S,2S,5R)-1-hydroxy-N-[(1S,2S)-2-hydroxy-1-(methoxymethyl)-2-phenyl-ethyl]-2-isopropyl-5-methyl-cyclohexanecarboxamide] |
| 1510 nM | 713 nM | CC(C)[C@@H]1CC[C@@H](C)C[C@@]1(O)C(=O)NCCc1nc2ccccc2[nH]1 [Example 8, (1S,2S,5R)—N-(2-(1H-benzo[d]imidazol-2-yl)ethyl)-1-hydroxy-2-isopropyl-5-methylcyclohexane-1-carboxamide 2-hydroxypropane-1,2,3-tricarboxylate] |
| 48.5 nM | 18.2 nM | Cc1cccc([C@@H](O)CNC(=O)[C@]2(O)C[C@H](C)CC[C@H]2C(C)C)c1 [Example 45, (1S,2S,5R)-1-hydroxy-N-((2R)-hydroxy-2-(m-tolyl)ethyl)-2-isopropyl-5-methylcyclohexane-1-carboxamide] |
| 11.9 nM | 4.6 nM | Cc1cccc([C@H](O)CNC(=O)[C@]2(O)C[C@H](C)CC[C@H]2C(C)C)c1 [Example 46, (1S,2S,5R)-1-hydroxy-N-((2S)-hydroxy-2-(m-tolyl)ethyl)-2-isopropyl-5-methylcyclohexane-1-carboxamide] |
| 641 nM | 586 nM | CC(C)[C@@H]1CC[C@@H](C)C[C@@]1(O)C(=O)N[C@@H](CO)Cc1ccccc1 [Example 47, (1S,2S,5R)-1-hydroxy-N-((2R)-1-hydroxy-3-phenylpropan-2-yl)-2-isopropyl-5-methylcyclohexane-1-carboxamide] |
| 6.2 nM | 4.3 nM | Cc1ccccc1CCNC(=O)[C@]1(O)C[C@H](C)CC[C@H]1C(C)C [Example 59, (1S,2S,5R)-1-hydroxy-2-isopropyl-5-methyl-N-(2-methylphenethyl)cyclohexane-1-carboxamide] |
| 43.5 nM | 7.1 nM | Cc1ccc(CCNC(=O)[C@]2(O)C[C@H](C)CC[C@H]2C(C)C)cc1 [Example 60, (1S,2S,5R)-1-hydroxy-2-isopropyl-5-methyl-N-(4-methylphenethyl)cyclohexane-1-carboxamide] |
| 353 nM | 729 nM | COC(=O)CC(CNC(=O)[C@]1(O)C[C@H](C)CC[C@H]1C(C)C)c1ccccc1 (stereo partly drawn) [Example 65, methyl 4-((1S,2S,5R)-1-hydroxy-2-isopropyl-5-methylcyclohexane-1-carboxamido)-3-phenyl butanoate] |
| 84 nM | 109 nM | COC(=O)CCOc1ccccc1CCNC(=O)[C@]1(O)C[C@H](C)CC[C@H]1C(C)C [Example 75, methyl 3-(2-(2-((1S,2S,5R)-1-hydroxy-2-isopropyl-5-methylcyclohexane-1-carboxamido)ethyl)phenoxy)propanoate] |
| 501 nM | 365 nM | CC(C)[C@@H]1CC[C@@H](C)C[C@@]1(O)C(=O)NCC(=O)Oc1cc(O)cc(O)c1 [Example 76, 3,5-dihydroxyphenyl ((1S,2S,5R)-1-hydroxy-2-isopropyl-5-methylcyclohexane-1-carbonyl)glycinate] |
| 3.6 nM | 3.1 nM | CC(C)[C@@H]1CC[C@@H](C)C[C@@]1(O)C(=O)N[C@H]1COc2ccccc2C1 [Example 95, (1S,2S,5R)—N-((3R)-chroman-3-yl)-1-hydroxy-2-isopropyl-5-methylcyclohexane-1-carboxamide] |

Second part, the compound before the results:

| Structure (SMILES) | EC50 (human TRPM8) | EC50 (pig TRPM8) |
| --- | --- | --- |
| CC(C)[C@@H]1CC[C@@H](C)C[C@@]1(O)C(=O)NCC(O)(c1ccccc1)C(F)(F)F (single isomer, unassigned) [Example 82] | 332 nM | 486 nM |
| [2H]C(O)(CNC(=O)[C@]1(O)C[C@H](C)CC[C@H]1C(C)C)c1ccccc1 (single isomer, unassigned) [Example 92] | 4.1 nM | 2.3 nM |
| CC(C)[C@@H]1CC[C@@H](C)C[C@@]1(O)C(=O)NCC1OCCc2ccccc21 (single isomer, unassigned) [Example 97] | 11.1 nM | 29.2 nM |
| CC(C)[C@@H]1CC[C@@H](C)C[C@@]1(O)C(=O)NCC1OCCc2ccccc21 (single isomer, unassigned) [Example 98] | 52.8 nM | 64.7 nM |
| CC(C)[C@@H]1CC[C@@H](C)C[C@@]1(O)C(=O)NCC1(O)CCc2ccccc21 (single isomer, unassigned) [Example 176] | 1.1 nM | 1.3 nM |
| CC(C)[C@@H]1CC[C@@H](C)C[C@@]1(O)C(=O)NCC(NC(=O)[C@H](C)N)c1ccccc1 (single isomer, unassigned) [Example 181] | 22.5 nM | 61.4 nM |
| Cc1cccc(C(O)CNC(=O)[C@]2(O)C[C@H](C)CC[C@H]2C(C)C)c1 (stereo partly drawn) [Example 12, (1S,2S,5R)-1-hydroxy-N-(2-hydroxy-2-(m-tolyl)ethyl)-2-isopropyl-5-methylcyclohexane-1-carboxamide] | 3 nM | 2 nM |
| Cc1oc(=O)oc1COC(=O)c1cccc(CCNC(=O)[C@]2(O)C[C@H](C)CC[C@H]2C(C)C)c1 [Example 29, (5-methyl-2-oxo-1,3-dioxol-4-yl)methyl 3-(2-((1S,2S,5R)-1-hydroxy-2-isopropyl-5-methylcyclohexane-1-carboxamido)ethy) benzoate] | 211 nM | 221 nM |
| CC(C)[C@@H]1CC[C@@H](C)C[C@@]1(O)C(=O)NC[C@@H](NC(=O)[C@@H](C)N)c1ccccc1 [Example 62, (1S,2S,5R)—N—((S)-2-((R)-2-aminopropanamido)-2-phenylethyl)-1-hydroxy-2-isopropyl-5-methylcyclohexane-1-carboxamide] | 1.6 nM | 2.3 nM |
| COC(=O)Cc1ccccc1CCNC(=O)[C@]1(O)C[C@H](C)CC[C@H]1C(C)C [Example 77, methyl 2-(2-(2-((1S,2S,5R)-1-hydroxy-2-isopropyl-5-methylcyclohexane-1-carboxamido)ethyl)phenyl)acetate] | 90 nM | 93 nM |
| CC(=O)NCCOc1ccccc1CCNC(=O)[C@]1(O)C[C@H](C)CC[C@H]1C(C)C [Example 84, (1S,2S,5R)—N-(2-(2-acetamidoethoxy)phenethyl)-1-hydroxy-2-isopropyl-5-methylcyclohexane-1-carboxamide] | 143 nM | 141 nM |
| CC(C)[C@@H]1CC[C@@H](C)C[C@@]1(O)C(=O)NCCc1cccc(CCC(=O)O)c1 [Example 87, 3-(3-(2-((1S,2S,5R)-1-hydroxy-2-isopropyl-5-methylcyclohexane-1-carboxamido)ethyl)phenyl)propanoic acid] | 982 nM | 259 nM |

— patent publication US20240124408A1 (Sanofi, priority 2020, published 2024)
